{
  "source": "paper PMC7747594",
  "about": "“Protease-activated receptor-2 ligands reveal orthosteric and allosteric mechanisms of receptor inhibition” (Communications Biology, 2020)",
  "key": {"[1]": {"tested_on": "PAR2 stabilised receptor (StaR)", "assay": "Surface plasmon resonance (SPR) binding, single-cycle kinetics", "procedure": "(§1) The SPR binding experiments were performed on a Biacore S200 optical biosensor unit (GE Healthcare) at 30 °C. Sensor chips Series S NTA (Research grade, GE Healthcare) were equilibrated at room temperature prior to use. The running buffer for protein tethering and subsequent ligand binding experiments was 50 mM HEPES, 250 mM NaCl, 0.1% (w/v) LMNG, 0.005% (w/v) CHS, 0.025% (w/v) CHAPS, pH 7.4, if not stated otherwise. The tethering of PAR2 was performed at a flow rate of 5 µl min^−1. The NTA surface was chosen to allow full control of the steric orientation of the tethered protein and was conditioned by a one-minute injection of a 350 mM EDTA solution (pH 8.3) followed by a one-minute injection of running buffer supplemented with 0.5 mM NiCl2. To allow for a covalent tethering after the initial capture step, the conditioned surface was activated for 7 min with 50 mM NHS and 200 mM EDC. This was immediately followed by an injection of PAR2 in running buffer at a concentration of 80–120 µg ml^−1 with a contact time of 5–10 min to achieve the desired densities of 8000–9000 RU. […] Reference surfaces were prepared accordingly, omitting the injection of protein over the activated reference surface. The subsequent binding experiments were all performed at a flow rate of 30 µl min^−1 and by employing the method of single-cycle kinetics. This approach involves the sequential injection of a compound concentration series without regeneration steps. A contact time of 60 s was selected, which was followed by a 30 min dissociation phase to allow for a proper estimation of the dissociation rate constant. Compounds were dissolved in DMSO to 10 mM and a digital dispenser HP D300 (Tecan) was used to set up the compound concentration series using 8 concentrations with a 2-fold dilution pattern. […] Prior to the analysis of compound binding, three running buffer blanks were injected to equilibrate the instrument. The data collection rate was set to 10 Hz and all experiments were repeated at least four times to allow for error estimations. Due to the low DMSO mismatch (maximum 0.1%) introduced by the compound addition, no solvent correction was required. To evaluate compound binding to the PAR-AZ8838 complex, the antagonist AZ8838 was supplemented into the running buffer at a concentration of 50 µM and the instrument was equilibrated for 1 h before performing the single-cycle kinetic study as described above. Similarly, binding of AZ2429 to the PAR-AZ3451 complex was investigated after addition of 1 µM AZ3451 to the running buffer followed by 1 h equilibrium period, while the addition of 10 µM AZ2429 to the running buffer was required to ensure >99% saturation for single-cycle kinetic study of AZ3451 binding to the PAR2-AZ2429 complex.\n(§2) Prior to the fitting of the data, the reference-subtracted data was further analysed by subtracting a similar single-cycle kinetic experiment containing only buffer injections in order to correct for injection artefacts, systematic noise and instrument drift. This double-referenced data has been fitted using a simple 1:1 interaction model as described by Karlsson et al.[46] in order to extract kinetic and affinity data. All data were expressed as mean ± s.e.m. and further analysed using GraphPad Prism 8. Statistical differences were assessed using student’s t-tests (two-tailed) for data sets of two and one-way ANOVA for data sets of three. Significance was set at ^+p < 0.05, ^++p < 0.01, ^+++p < 0.001, ^++++p < 0.0001 compared to AZ3451, and *p < 0.05, **p < 0.01, ***p < 0.001, ****p < 0.0001 compared to AZ2429."}, "[2]": {"tested_on": "parental 1321N1 cells", "assay": "Ca^2+ flux assay, agonist mode, parental 1321N1 cells", "type": "cell-based", "set-up": "Ca2+ response (Fig 2c), individual replicate values: unit not given here", "conditions": "for Ca2+ response (Fig 2c), individual replicate values: control", "procedure": "Cells were loaded with Fluo-8 NW calcium dye (AAT Bioquest) for 30 min at 37 °C before compounds in Hank’s balanced salt solution (HBSS, ThermoFisher Scientific) with 20 mM HEPES (ThermoFisher Scientific), 0.1% bovine serum albumin (BSA, Sigma) and 0.5% DMSO were added and simultaneously evaluated for changes in intracellular [Ca^2+] using FLIPR TETRA (Molecular Devices) to detect agonism. For each concentration, the difference between the maximum peak Ca^2+ response and baseline response is reported. […] Antagonism experiments were also carried out on 1321N1-PAR2[WT], 1321N1-PAR2[F154A], and 1321N1-PAR2[G157C] as described. Experiments with trypsin in 1321N1-hPAR2 cells were performed in the presence of 1 µM Vorapaxar (Chemtronica) to remove any interference of PAR1 activity. […] Antagonism experiments for CHO-hPAR2 and HT-29 cells were performed in 96-well plates at 30,000 cells/well. Cells were loaded with Fluo-3 AM calcium dye (Sigma-Aldrich) for 60 min at 37 °C in HBSS with 1% FBS, 0.2% pluronic acid, 20 mM HEPES and 2.5 mM probenecid prior to the addition of antagonist. The antagonist was pre-incubated for 60 min at 37 °C followed by the addition of bovine trypsin (30 nM) at EC80. Intracellular [Ca^2+] flux was measured using FLIPR TETRA (Molecular Devices) and the difference between the maximum peak Ca^2+ response and baseline response is reported."}, "[3]": {"target": "T1, PAR2 stabilised receptor (StaR) (Homo sapiens, UniProt P55085)", "T1 sequence (P55085 55-377)": "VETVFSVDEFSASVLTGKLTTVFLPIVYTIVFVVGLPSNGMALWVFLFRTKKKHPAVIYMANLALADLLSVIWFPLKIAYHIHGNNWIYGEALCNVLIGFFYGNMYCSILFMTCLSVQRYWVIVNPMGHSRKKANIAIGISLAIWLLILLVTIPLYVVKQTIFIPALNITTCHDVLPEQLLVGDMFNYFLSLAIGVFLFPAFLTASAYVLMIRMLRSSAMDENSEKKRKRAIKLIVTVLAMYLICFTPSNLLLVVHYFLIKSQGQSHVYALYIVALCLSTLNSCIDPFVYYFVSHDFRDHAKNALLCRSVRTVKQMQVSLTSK", "assay": "Surface plasmon resonance (SPR) binding, single-cycle kinetics", "procedure": "as §1, §2"}},
  "note": "“And” between values parts separate entries of the source, which are not always exact repeats. Identical values can stand only once.",
  "data": [
    {"smiles": "CNC(=O)[C@H]1CC[C@@H](NC(=O)[C@H](CC2CCCCC2)NC(=O)c2cn(Cc3ccccc3)nn2)c2ccccc21", "note": "[AZ2429]", "values": [
      {"measurement": "association kinetics slower than AZ3451", "setting": "[1]; SPR", "result": "around 100 fold"},
      {"measurement": "dissociation rate decreased relative to AZ3451", "setting": "[1]; SPR", "result": 5, "unit": "fold"},
      {"measurement": "weaker affinity than AZ3451", "setting": "[1]; SPR", "result": 10, "unit": "fold"},
      {"measurement": "ka", "setting": "[1]; apo-PAR2, 30 °C", "result": "1.5 ± 0.1 × 10^4 (n = 4) M^−1 s^−1"},
      {"measurement": "pKD", "setting": "[1]; apo-PAR2, 30 °C", "result": "6.89 ± 0.03 (n = 4)"},
      {"measurement": "residence time", "setting": "[1]; apo-PAR2, 30 °C", "result": "523 ± 50 (n = 4) s"},
      {"measurement": "Ca^2+ mobilisation in parental 1321N1 cells", "setting": "[2]", "result": "No Ca^2+ mobilisation could be detected"},
      {"measurement": "Ca2+ response (Fig 2c), individual replicate values", "setting": "[2]; [compound],M -4.30103", "result": "-0.222 and -3.029 and 1.6687 and -8.186"},
      {"measurement": "Ca2+ response (Fig 2c), individual replicate values", "setting": "[2]; [compound],M -4.77815", "result": "-2.571 and -2.17 and -0.3366 and -1.253"},
      {"measurement": "Ca2+ response (Fig 2c), individual replicate values", "setting": "[2]; [compound],M -5.25527", "result": "2.7 and 1.783 and -0.795 and 0.5801"},
      {"measurement": "Ca2+ response (Fig 2c), individual replicate values", "setting": "[2]; [compound],M -5.73239", "result": "1.6114 and 0.4655 and 2.528 and 1.21"},
      {"measurement": "Ca2+ response (Fig 2c), individual replicate values", "setting": "[2]; [compound],M -6.20952", "result": "-1.884 and -0.222 and -1.998 and 1.6114"},
      {"measurement": "Ca2+ response (Fig 2c), individual replicate values", "setting": "[2]; [compound],M -6.68664", "result": "5.507 and 2.986 and 0.6947 and 2.299"},
      {"measurement": "Ca2+ response (Fig 2c), individual replicate values", "setting": "[2]; [compound],M -7.16376", "result": "5.851 and 0.8093 and -0.4512 and 3.674"},
      {"measurement": "Ca2+ response (Fig 2c), individual replicate values", "setting": "[2]; [compound],M -7.64088", "result": "-0.2793 and 2.6427 and 2.471 and 0.06446"},
      {"measurement": "Ca2+ response (Fig 2c), individual replicate values", "setting": "[2]; [compound],M -8.118", "result": "-2.571 and 1.726 and 3.502 and 0.5801"},
      {"measurement": "Ca2+ response (Fig 2c), individual replicate values", "setting": "[2]; [compound],M -8.59512", "result": "-3.717 and -6.009 and -11.1079 and -4.175"}
    ]},
    {"smiles": "C[C@@H](C1CCCCC1)n1c(-c2cc3c(cc2Br)OCO3)nc2cc(C(=O)Nc3ccc(C#N)cc3)ccc21", "note": "[AZ3451]", "values": [
      {"measurement": "reduction in affinity in presence of saturating AZ8838", "setting": "[3]; SPR", "result": 3, "unit": "fold"},
      {"measurement": "residence time", "setting": "[3]; SPR, apo-PAR2", "result": "about 2 min"},
      {"measurement": "ka", "setting": "[3]; apo-PAR2, 30 °C", "result": "1.1 ± 0.6 × 10^6 (n = 4) M^−1 s^−1"},
      {"measurement": "pKD", "setting": "[3]; apo-PAR2, 30 °C", "result": "7.96 ± 0.04 (n = 4)"},
      {"measurement": "residence time", "setting": "[3]; apo-PAR2, 30 °C", "result": "116 ± 68 (n = 4) s"}
    ]}
  ]
}
